We go through nine compounds from patent EP0419844B1, “N-hydroxy-dibenz[b,e]oxepin-alkylamines and -alkanoic acid amides, related heterocyclic analogues, a process for their preparation and their use in the manufacture of medicaments” (HOECHST-ROUSSEL PHARMACEUTICALS INCORPORATED, priority 1989, dated 1991).

Each structure is given as a SMILES string.

Test [1] concerns phenyl-para-quinone induced writhing. Nature of the test: Phenyl-para-benzoquinone writhing assay (analgesia). It counts as in vivo. The following applies: Mus musculus, mice; for ED50: sc, subcutaneous dose at which 50% of the phenyl-para-quinone induced writhing is inhibited, read-out: ED₅₀. From the text:
The compounds of the present invention are also useful as analgesic agents due to this ability to alleviate pain in mammals. […] Exptl. Biol. Med., 95, 729 (1957)].
The analgesic activity of some of the compounds expressed as either the subcutaneous dose at which 50% of the phenyl-para-quinone induced writhing is inhibited in the animals, i.e., the ED₅₀ value, or as the % decrease in writhing at a given dose is presented in Table 2.
A general note: In writhing tests, fewer writhes than in controls are read as antinociception.

Test [2] deals with naja naja (snake venom) phospholipase A₂(PLA₂)-induced paw edema. Nature of the test: Phospholipase A2-Induced Paw Edema (PIPE). It counts as in vivo, male Wistar rats. The following applies: for PIPE 0.1 M: 0.1 M test compound injected with PLA2 (3 units/paw) in the subplantar region of the rat left hindpaw, paw displacement at two hours; for ED₅₀: standards of the PIPE assay, PLA2-induced rat paw edema. The procedure:
Phospholipase A₂-Induced Paw Edema (PIPE)
The ability of compounds to reverse naja naja (snake venom) phospholipase A₂(PLA₂)-induced paw edema in male Wistar rats (100-125 gm) was measured. PLA₂ (3 units/100 »l dH₂O/paw) alone or with 0.1 M of the test compound was injected in the sulplantar region of the rat left hindpaw. Immediatly following injection and at two hours post administration, the paw was immersed in a mercury bath, and paw displacement was measured on a recorder via a transducer. The value was then converted to […]. (Standards: Quinacrine ED₅₀ = 0.1 M; Hydrocortisone ED₅₀= 0.46 M). Giessler, A.J. et al., "Agents and Action", Vol. 10, "Trends in Inflammation Research" (1981), p. 195.

In a further test the test system is TPA-induced ear edema. As to the kind of experiment: TPA-Induced Ear Edema (TPAEE). It counts as in vivo, female Swiss Webster mice. Conditions: for TPAEE 10 »g/ear: 10 »g/ear compound topical with 10 »g TPA, ear plug weight after about 5 hours, mean percent change versus control. The procedure: TPA-Induced Ear Edema (TPAEE)
In the TPA-induced ear edema assay, TPA (12-0-tetradecanoyl-phorbol-13-acetate) is dissolved in 30/70 propylene glycol/ethanol and is applied to the right ear of groups of 6 female Swiss Webster mice at a volume of 20 »l so that a total of 10 »g of TPA is delivered to the inner and outer surfaces of the ear. The mice were housed together in a cage under standard conditions for 1 week prior to use with food and water ad lib. The test compound is dissolved in the vehicle and is applied to the right ear (the inner and outer surfaces) at a volume of 20 »l so that a total of 10 »g of the compound is delivered to the ear. After about 5 hours, the animals are sacrificed and a 4 mm diameter plug is taken from each ear and weighed. The difference between the right and left ear plug weights for each animal was determined. The antiinflammatory activity of the test compound is expressed as the mean percent change in ear plug weight of the treated animals compared to the mean percent change in the plug weight of the control animals. (Standard: Indomethacin: -86% at 1 mg/ear). Young, J.M. et al., J. Invest. Dermatol., 80 (1983), pp. 48-52.

In test [3] the test system is arachidonic acid-induced ear edema. Nature of the test: Arachidonic Acid-Induced Mouse Ear Edema (AAEE). The following applies: 1 mg/ear topical, 30 minutes before arachidonic acid 4 mg/ear; ear plug weight one hour later, relative to control. It counts as in vivo, female Swiss Webster mice. The method, then:
Arachidonic Acid-Induced Mouse Ear Edema (AAEE)
In the arachidonic acid-induced ear edema assay, the test compound is dissolved in 30/70 propylene glycol/ethanol and is applied to both ears of groups of 6 female Swiss Webster mice at a volume of 20 »l so that a total of 1.0 mg of test compound as delivered to each ear over the inner and outer surfaces. The mice were housed together in a cage under standard conditions for 1 week prior to use with food and water ad lib. The same volume (20 »l) of vehicle is applied to each ear of a control group of mice. After 30 minutes, arachidonic acid is applied to the right ear of each mouse of each group in the amount of 4 mg/ear. Vehicle is applied to the left ear of each mouse of each group at a volume of 20 »l/ear. After an additional hour, the mice are sacrificed and a 4mm plug is taken from each ear and weighed. The difference between the right and left ear plugs was determined for each animal. The antiinflammatory activity of the test compound is expressed as the mean percent change in the ear plug weight of the treated animals relative to the mean percent change in weights of control animals' ear. (Standard: Indomethacin -90% at 1 mg/ear). Young, J.M. et al., Invest. Dermatol., 80, (1983), pp. 48-52.

Regarding `O=C1c2ccccc2COc2ccc(CCC(=O)N(O)C3CCCCC3)cc21` [3-(6,11-Dihydro-11-oxodibenz[b,e]oxepin-2-yl)-N-cyclohexyl-N-hydroxypropanamide], 20 mg/kg produced 76% inhibition in test [1].
As for `CCC(=O)O[C@](Cc1ccccc1)(c1ccccc1)[C@H](C)CN(C)C` [Propoxyphene, reference compound], the ED50 in test [1] was determined as 3.9 mg/kg.
`CN(O)CCc1ccc2c(c1)C(=O)c1ccccc1CO2` [2-(6,11-Dihydro-11-oxodibenz[b,e]oxepin-2-yl)-N-hydroxy-N-methyl-ethylamine]: the “PIPE 0.1 M” value in test [2] is -70. Further, the “TPAEE 10 »g/ear” value in the test on TPA-induced ear edema is recorded as -50. For the same compound, the “AAEE % Change @ 1 mg/ear” value in test [3] was -46%.
`CCN(CC)CCCC(C)Nc1c2ccc(Cl)cc2nc2ccc(OC)cc12` (centres unmarked) [Quinacrine, reference compound] showed an ED₅₀ in test [2] of 0.1 M.
On to `CN(O)C(=O)CCc1ccc2c(c1)C(=O)c1ccccc1CO2` [3-(6,11-Dihydro-11-oxodibenz[b,e]oxepin-2-yl)-N-hydroxy-N-methylpropanamide], for which the “PIPE 0.1 M” value in test [2] is -46. Besides, the “TPAEE 10 »g/ear” value in the test on TPA-induced ear edema is -71. The “AAEE % Change @ 1 mg/ear” value in test [3] was -63%.
Take `CCN(O)C(=O)C(C)c1ccc2c(c1)C(=O)c1ccccc1CO2` (centres unmarked) [2-(6,11-Dihydro-11-oxodibenz[b,e,]oxepin-2-yl]-N-ethyl-N-hydroxypropanamide]: the ED50 in test [1] was 3.6 mg/kg.
Take `O=C1c2ccccc2COc2ccc(CC(=O)N(O)C3CCCCC3)cc21` [N-Cyclohexyl-2-(6,11-dihydro-11-oxodibenz[b,e]oxepin-2-yl)-N-hydroxyacetamide]: in test [2], the “PIPE 0.1 M” value is on record as -85. In addition, the “TPAEE 10 »g/ear” value with TPA-induced ear edema is -52. The “AAEE % Change @ 1 mg/ear” value in test [3] is -29%. Testing at 20 mg/kg in test [1] gave an inhibition of 68%.
For the compound `COc1ccc2c(c1)c(CC(=O)O)c(C)n2C(=O)c1ccc(Cl)cc1` [Indomethacin, reference compound], the “TPAEE percent change in ear plug weight” value in the test with TPA-induced ear edema (standard, at 1 mg/ear) is reported as -86%. The “AAEE % Change @ 1 mg/ear” value in test [3] is on record as -90%.
In test [2], `C[C@]12CCC(=O)C=C1CC[C@@H]1[C@@H]2[C@@H](O)C[C@@]2(C)[C@H]1CC[C@]2(O)C(=O)CO` [Hydrocortisone, reference compound] registered an ED₅₀ of 0.46 M.

The term inhibition denotes the share of the control response that was lost under treatment. Read a high inhibition as a strong effect.
